Assay results taken from patent US20230271969A1, “NITROGEN-CONTAINING FUSED RING DERIVATIVE INHIBITOR, PREPARATION METHOD THEREFOR AND USE THEREOF” (Shanghai Hansoh Biomedical Co., Ltd., priority 2020, published 2023).

Assays:
NK3 receptors [1] = biological target: T1, NK3 receptors (Homo sapiens, UniProt P29371); assay: Antagonism of IP1 in HEK293 cells with stable expression of NK3; type: cell-based; settings: agonist Senktide 3 nM, read-out: NK3R IC50 (nM) IP1
T1 construct: expressed in transfected cells
T1 sequence (P29371 1-465): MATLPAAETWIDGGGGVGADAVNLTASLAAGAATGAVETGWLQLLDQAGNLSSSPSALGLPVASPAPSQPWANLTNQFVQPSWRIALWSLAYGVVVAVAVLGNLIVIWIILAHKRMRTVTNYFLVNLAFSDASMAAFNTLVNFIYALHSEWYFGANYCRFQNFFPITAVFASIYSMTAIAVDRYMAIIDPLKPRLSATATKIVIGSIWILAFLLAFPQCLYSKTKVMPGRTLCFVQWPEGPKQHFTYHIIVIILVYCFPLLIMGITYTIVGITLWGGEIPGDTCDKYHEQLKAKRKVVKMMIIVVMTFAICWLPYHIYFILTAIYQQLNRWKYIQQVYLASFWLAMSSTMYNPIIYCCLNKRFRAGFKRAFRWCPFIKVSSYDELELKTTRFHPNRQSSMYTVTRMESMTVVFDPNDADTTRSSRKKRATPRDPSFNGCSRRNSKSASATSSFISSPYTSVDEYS
Method: Determination of the Effect of the Compounds of the Present Invention on IP1 in HEK293 Cells with Stable Expression of NK3
The objective of this test example was to determine the antagonism effect of the compounds on the activity of HEK293-NK3 cells.
3. Experimental Methods: • 1. […] HEK293-NK3 cell line was cultured in complete medium and seeded in the coated dishes at 37° C., 5% CO2 until 70%˜90% confluence. • 3. […] The cells were digested and resuspended in 1× Stimulation Buffer (IP-ONE Gq Kit), seeded into the 384-well cell culture plate (which contained the compound to be tested) at 5,000 cells/well/5 μL by using Multidrop Combi. The culture plate was centrifuged at 300 rpm at room temperature for 60 seconds, and then incubated at 37° C., 5% CO2 for 15 minutes. • 5. The cell culture plate was taken out from the CO2 incubator. […] The culture plate was centrifuged at 300 rpm at room temperature for 60 seconds, and then incubated at 37° C., 5% CO2 for 2 hours. • 6. The cell culture plate was taken out from the CO2 incubator. 5 μL of IP1 d2 reagent and then 5 μL of IP1 Tb Cryptate Antibody reagent were added by using Multidrop Combi. The culture plate was centrifuged at room temperature at 300 rpm for 60 seconds, and left to stand at room temperature for 1 hour. • 7. The plate was read by using EnVision Multilabel Reader, and data were collected at the same time.
The fluorescence signal ratio (Ratio) was read and collected by EnVision Multilabel Reader. According to the readings of the Low control (DMSO control) and High control (p)ositive compound) experimental groups, the antagonism percentage data were calculated as {% antagonism=(Ratio sample−Ratio low control)/(Ratio high control−Ratio low control)×100}.

NK3 receptors [2] = biological target: T1, NK3 receptors; assay: Calcium ion fluidity (FLIPR) in cells with stable expression of NK3 receptors; type: cell-based; settings: calcium signal, antagonist mode, read-out: NK3R IC50 (nM) FLIPR
Description: Determination of the Effect of the Compounds of the Present Invention on Calcium Ion Fluidity in Cells with Stable Expression of NK3 Receptors
Experimental objective: The objective of this test example was to determine the inhibitory effect of the compounds on NK3 receptors.
Experimental Methods: • 1. […] Probenecid and BSA were freshly added on the day of the experiment. The buffers for the experiments included dye buffer, compound dilution buffer and the like. • 2. […] The culture medium was discarded, and 20 μL of dye was added. The cells were incubated at 37° C. in the dark for 60 min, and then the calcium signal was read. • 4. The antagonist was prepared before the experiments. […] The plate was transferred to FLIPR, and 6× concentration of the agonist compound was added at 5 μL/well. The values were read and the data were saved by using FLIPR. The total assay volume was 30 μL, comprising 20 μL/well of dye buffer, 5 μL/well of 5× concentration of the experimental compound, and 5 μL/well of 6× concentration of the agonist compound.
The calcium signal value was read by FLIPR. The output of each sampling time point in the experiment was calculated as the ratio of the signals at wavelengths of 340/510 nm to 380/510 nm. The maximum minus minimum value was calculated from the ratio signal curve. The IC50 value of the compound was calculated by fitting the data of inhibition rate percentage and ten concentrations to the parametric nonlinear logistic equation by using GraphPad prism.

With `C[C@@H]1c2nnc(-c3nc4ccc(Cl)cc4s3)n2CCN1C(=O)c1ccc(Cl)cc1` [Example 20, (R)-(3-(6-Chlorobenzo[d]thiazol-2-yl)-8-methyl-5,6-dihydro-[1,2,4]triazolo[4,3-a]pyrazin-7(8H)-yl)(4-chlorophenyl)methanone] the IC50 (NK3 receptors [1]) was 27.3 nM and the IC50 (NK3 receptors [2]) was 61 nM.

Molecule `C[C@@H]1c2nnc(-c3nc4ccc(C#N)cc4s3)n2CCN1C(=O)c1ccc(F)cc1` [Example 21, (R)-2-(7-(4-Fluorobenzoyl)-8-methyl-5,6,7,8-tetrahydro-[1,2,4]triazolo[4,3-a]pyrazin-3-yl)benzo[d]thiazol-6-carbonitrile] has an IC50 (NK3 receptors [1]) of 28.2 nM and an IC50 (NK3 receptors [2]) of 123 nM.

For `Cc1cccc2sc(-c3nnc4n3CCN(C(=O)c3ccc(F)cc3)[C@@H]4C)nc12` [Example 22, (R)-(4-Fluorophenyl)(8-methyl-3-(4-methylbenzo[d]thiazol-2-yl)-5,6-dihydro-[1,2,4]triazolo[4,3-a]pyrazin-7(8H)-yl)methanone], the IC50 (NK3 receptors [1]) was 57 nM and the IC50 (NK3 receptors [2]) was 73.3 nM.

`Cc1cccc2sc(-c3nnc4n3CCN(C(=O)c3ccc(Cl)cc3)[C@@H]4C)nc12` [Example 23, (R)-(4-Chlorophenyl)(8-methyl-3-(4-methylbenzo[d]thiazol-2-yl)-5,6-dihydro-[1,2,4]triazolo[4,3-a]pyrazin-7(8H)-yl)methanone] showed an IC50 (NK3 receptors [1]) of 43.6 nM and an IC50 (NK3 receptors [2]) of 97.8 nM.

Work on `Cc1ccc2nc(-c3nnc4n3CCN(C(=O)c3ccc(F)cc3)[C@@H]4C)sc2c1` [Example 24, (R)-(4-Fluorophenyl)(8-methyl-3-(6-methylbenzo[d]thiazol-2-yl)-5,6-dihydro-[1,2,4]triazolo[4,3-a]pyrazin-7(8H)-yl)methanone] yielded an IC50 (NK3 receptors [1]) of 49.5 nM and an IC50 (NK3 receptors [2]) of 45.6 nM.

Work on `Cc1ccc2nc(-c3nnc4n3CCN(C(=O)c3ccc(Cl)cc3)[C@@H]4C)sc2c1` [Example 25, (R)-(4-Chlorophenyl)(8-methyl-3-(6-methylbenzo[d]thiazol-2-yl)-5,6-dihydro-[1,2,4]triazolo[4,3-a]pyrazin-7(8H)-yl)methanone] yielded an IC50 (NK3 receptors [1]) of 47.8 nM and an IC50 (NK3 receptors [2]) of 58.4 nM.

`Cc1ccc2nc(-c3nnc4n3CCN(C(=O)c3ccc(Cl)c(Cl)c3)[C@@H]4C)sc2c1` [Example 26, (R)-(3,4-Dichlorophenyl)(8-methyl-3-(6-methylbenzo[d]thiazol-2-yl)-5,6-dihydro-[1,2,4]triazolo[4,3-a]pyrazin-7(8H)-yl)methanone] gave an IC50 (NK3 receptors [1]) of 36.1 nM and an IC50 (NK3 receptors [2]) of 96.7 nM.

Work on `COc1ccc2nc(-c3nnc4n3CCN(C(=O)c3ccc(F)cc3)[C@@H]4C)sc2c1` [Example 29, (R)-(4-Fluorophenyl)(3-(6-methoxybenzo[d]thiazol-2-yl)-8-methyl-5,6-dihydro-[1,2,4]triazolo[4,3-a]pyrazin-7(8H)-yl)methanone] yielded an IC50 (NK3 receptors [1]) of 29 nM and an IC50 (NK3 receptors [2]) of 65.8 nM.

In the case of `COc1ccc2nc(-c3nnc4n3CCN(C(=O)c3ccc(Cl)cc3)[C@@H]4C)sc2c1` [Example 30, (R)-(4-Chlorophenyl)(3-(6-methoxybenzo[d]thiazol-2-yl)-8-methyl-5,6-dihydro-[1,2,4]triazolo[4,3-a]pyrazin-7(8H)-yl)methanone], the IC50 (NK3 receptors [1]) is reported as 187 nM and the IC50 (NK3 receptors [2]) is reported as 47.4 nM.

`COc1ccc2nc(-c3nnc4n3CCN(C(=O)c3ccc(Cl)c(Cl)c3)[C@@H]4C)sc2c1` [Example 31, (R)-(3,4-Dichlorophenyl)(3-(6-methoxybenzo[d]thiazol-2-yl)-8-methyl-5,6-dihydro-[1,2,4]triazolo[4,3-a]pyrazin-7(8H)-yl)methanone] gave an IC50 (NK3 receptors [1]) of 43.2 nM and an IC50 (NK3 receptors [2]) of 86.7 nM.

Work on `Cc1cccc2cc(-c3nnc4n3CCN(C(=O)c3ccc(Cl)c(Cl)c3)[C@@H]4C)nn12` [Example 49, (R)-(3,4-Dichlorophenyl)(8-methyl-3-(7-methylpyrazolo[1,5-a]pyridin-2-yl)-5,6-dihydro-[1,2,4]triazolo[4,3-a]pyrazin-7(8H)-yl)methanone] yielded an IC50 (NK3 receptors [1]) of 135 nM and an IC50 (NK3 receptors [2]) of 86.7 nM.

In the case of `[2H]c1c([2H])c(C(=O)N2CCn3c(-c4nc(Cl)ns4)nnc3[C@H]2C)c([2H])c([2H])c1F` [Example 55, (R)-(3-(3-Chloro-1,2,4-thiadiazol-5-yl)-8-methyl-5,6-dihydro-[1,2,4]triazolo[4,3-a]pyrazin-7(8H)-yl)(4-fluorophenyl-2,3,5,6-d4)methanone], the IC50 (NK3 receptors [1]) is reported as 88.3 nM and the IC50 (NK3 receptors [2]) is reported as 219 nM.

`C[C@@H]1c2nnc(-c3nc(Cl)ns3)n2CCN1C(=O)c1cc(F)c(F)c(F)c1` [Example 58, (R)-(3-(3-Chloro-1,2,4-thiadiazol-5-yl)-8-methyl-5,6-dihydro-[1,2,4]triazolo[4,3-a]pyrazin-7(8H)-yl)(3,4,5-trifluorophenyl)methanone] showed an IC50 (NK3 receptors [1]) of 84.1 nM and an IC50 (NK3 receptors [2]) of 183 nM.

In the case of `C[C@@H]1c2nnc(-c3nc(N(C)C)ns3)n2CCN1C(=O)c1ccc(F)cc1` [Example 60, (R)-(3-(3-(Dimethylamino)-1,2,4-thiadiazol-5-yl)-8-methyl-5,6-dihydro-[1,2,4]triazolo[4,3-a]pyrazin-7(8H)-yl)(4-fluorophenyl)methanone], the IC50 (NK3 receptors [1]) is reported as 190 nM and the IC50 (NK3 receptors [2]) is reported as 205 nM.

For `[2H]c1cc(C(=O)N2CCn3c(-c4nc5ccc(F)cc5s4)nnc3[C@H]2C)ccc1F` [Example 61, (R)-(3-(6-Fluorobenzo[d]thiazol-2-yl)-8-methyl-5,6-dihydro-[1,2,4]triazolo[4,3-a]pyrazin-7(8H)-yl)(4-fluorophenyl-3-d)methanone], the IC50 (NK3 receptors [1]) was 108 nM and the IC50 (NK3 receptors [2]) was 78.9 nM.

Work on `C[C@@H]1c2nnc(-c3nc4cnc(Cl)cc4s3)n2CCN1C(=O)c1ccc(Cl)cc1` [Example 97, (R)-(4-Chlorophenyl)(3-(6-chlorothiazolo[4,5-c]pyridin-2-yl)-8-methyl-5,6-dihydro-[1,2,4]triazolo[4,3-a]pyrazin-7(8H)-yl)methanone] yielded an IC50 (NK3 receptors [1]) of 172 nM and an IC50 (NK3 receptors [2]) of 156 nM.

`C[C@@H]1c2nnc(-c3nc(Br)ns3)n2CCN1C(=O)c1ccc(F)cc1` [Example 98] was tested, and the IC50 (NK3 receptors [1]) was 100 nM and the IC50 (NK3 receptors [2]) was 78.4 nM.

With `[2H]c1cc(C(=O)N2CCn3c(-c4nc5cc(F)c(F)cc5s4)nnc3[C@H]2C)ccc1Cl` [Example 99, (R)-(4-Chlorophenyl-3-d)(3-(5,6-difluorobenzo[d]thiazol-2-yl)-8-methyl-5,6-dihydro-[1,2,4]triazolo[4,3-a]pyrazin-7(8H)-yl)methanone] the IC50 (NK3 receptors [1]) was 23.3 nM and the IC50 (NK3 receptors [2]) was 56.2 nM.

Work on `[2H]c1cc(C(=O)N2CCn3c(-c4nc5ccc(F)cc5s4)nnc3[C@H]2C)ccc1Cl` [Example 101, (R)-(4-Chlorophenyl-3-d)(3-(6-fluorobenzo[d]thiazol-2-yl)-8-methyl-5,6-dihydro-[1,2,4]triazolo[4,3-a]pyrazin-7(8H)-yl)methanone] yielded an IC50 (NK3 receptors [1]) of 61 nM and an IC50 (NK3 receptors [2]) of 86.7 nM.

Work on `[2H]c1cc(C(=O)N2CCn3c(-c4nc5ccc(Cl)cc5s4)nnc3[C@H]2C)ccc1Cl` [Example 102, (R)-(3-(6-Chlorobenzo[d]thiazol-2-yl)-8-methyl-5,6-dihydro-[1,2,4]triazolo[4,3-a]pyrazin-7(8H)-yl)(4-chlorophenyl-3-d)methanone] yielded an IC50 (NK3 receptors [1]) of 16.4 nM and an IC50 (NK3 receptors [2]) of 32.5 nM.

For `[2H]c1cc(C(=O)N2CCn3c(-c4nc5ccc(Cl)cc5s4)nnc3[C@H]2C)ccc1F` [Example 103, (R)-(3-(6-Chlorobenzo[d]thiazol-2-yl)-8-methyl-5,6-dihydro-[1,2,4]triazolo[4,3-a]pyrazin-7(8H)-yl)(4-fluorophenyl-3-d)methanone], the IC50 (NK3 receptors [1]) was 16 nM and the IC50 (NK3 receptors [2]) was 27.1 nM.
